For experiment [1], the system named is NIH3T3. Put plainly: Inhibition of Ras-induced cell growth in H-Ras 61L expressing mouse NIH3T3 cells at 5 uM by MTT assay. The format is cell-based. On the technique in general: Tetrazolium dyes change colour on reduction, which living cells bring about.
The test system of experiment [2] is NIH3T3. Description: Inhibition on Rac1 61L […]-induced focus forming activity in mouse NIH3T3 cells at 5 uM. The format is cell-based.
In experiment [3] the test system is NIH3T3. Description: Inhibition on Rac1 61L-induced focus forming activity in mouse NIH3T3 cells at 5 uM. The format is cell-based.
For experiment [4], the target named is Ras-related C3 botulinum toxin substrate 1 (Mus musculus) (UniProt P63001). Put plainly: Effect on Rac1 binding to RhoGDI1 in mouse NIH3T3 cells by Western blot analysis. The format is cell-based. (Immunoblotting shows a protein as a band on a membrane.)
The target is the same in experiment [5]. Put plainly: Effect on Rac1 binding to RhoGDI2 in mouse NIH3T3 cells by Western blot analysis. The format is cell-based.
For experiment [6], the target named is Ras-related C3 botulinum toxin substrate 3 (Homo sapiens) (UniProt P60763). Put plainly: Binding affinity at Rac3 at 1 uM by fluorescence anisotropy. In general terms: Polarisation of emitted light reports the rotation of a fluorescent probe.
The subject of experiment [7] is NIH3T3. Description: Inhibition of Rac1 61L mutant-induced cellular transformation in mouse NIH3T3 cells at 5 uM after 3 to 5 weeks. The format is cell-based.
Experiment [8] deals with Cell division control protein 42 homolog (Homo sapiens) (UniProt P60953). Put plainly: Binding affinity at Cdc42 at 1 uM by fluorescence anisotropy.
Cell division control protein 42 homolog (Homo sapiens), sequence (P60953 whole entry, looked up): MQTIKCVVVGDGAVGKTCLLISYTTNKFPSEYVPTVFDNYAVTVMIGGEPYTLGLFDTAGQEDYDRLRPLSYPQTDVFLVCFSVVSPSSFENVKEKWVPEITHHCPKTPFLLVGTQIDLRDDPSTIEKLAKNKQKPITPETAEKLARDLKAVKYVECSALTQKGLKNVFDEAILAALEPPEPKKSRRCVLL
Experiment [9] has as its system NIH3T3. Description: Inhibition of bradykinin-induced filopodia formation in mouse NIH3T3 cells at 5 uM. The format is functional, cell-based.
Another experiment relates to 293T. Description: Effect on interaction between Rac1 15A mutant and human Tiam1 C1199 mutant expressed in 293T cells by Western blot analysis. The format is cell-based.
In experiment [10] the target is Cell division control protein 42 homolog (Homo sapiens) (UniProt P60953). Description: Inhibition of platelet derived growth factor-induced endogenous association of Cdc42 with GST-PAK-RBD in human U87MG cells after 5 mins by Western blot analysis. As to conditions: U-87MG ATCC. The format is cell-based.
Experiment [11] has as its system NIH3T3. Put plainly: Effect on interaction between Rac1 15A mutant and human Tiam1 C1199 mutant expressed in NIH3T3 cells by Western blot analysis. The format is cell-based.
Experiment [12] concerns the target Ras-related C3 botulinum toxin substrate 2 (Homo sapiens) (UniProt P15153). Description: Binding affinity at Rac2 at 1 uM by fluorescence anisotropy.
The test system of experiment [13] is U-87 MG. Put plainly: Reduction of RhoA-GTPase level in platelet derived growth factor-induced human U87MG cells measured with GST-rhotekin-RBD by pulldown assay. As to conditions: U-87MG ATCC. The format is functional, cell-based.
Experiment [14] has as its system NIH3T3. Description: Inhibition of H-Ras 61L mutant-induced focus formation in mouse NIH3T3 cells at 5 uM after 14 days. The format is cell-based.
Experiment [15] has as its target Cell division control protein 42 homolog (Homo sapiens) (UniProt P60953). Description: Inhibition of Cdc42-PAK-RBD complex formation in platelet derived growth factor-induced human U87MG cells at 50 uM by fluorescence anisotropy. The format is cell-based. The following applies: U-87MG ATCC.
The subject of experiment [16] is NIH3T3. Description: Inhibition of lysophosphatidic acid-induced actin stress fibers formation in mouse NIH3T3 cells at 5 uM. The format is functional, cell-based.
For experiment [17], the system named is NIH3T3. Description: Inhibition on Tiam1 C1199 mutant-induced focus forming activity in mouse NIH3T3 cells at 5 uM. The format is cell-based.
Experiment [18] deals with NIH3T3. Description: Inhibition of platelet derived growth factor-induced lamellipodia formation in mouse NIH3T3 cells at 5 uM. The format is functional.
The test system of experiment [19] is U-87 MG. Put plainly: Reduction of Rac1-GTPase level in platelet derived growth factor-induced human U87MG cells measured with GST-rhotekin-RBD by pulldown assay. The format is functional, cell-based. The following applies: U-87MG ATCC.
For experiment [20], the system named is U-87 MG. Put plainly: Reduction of Cdc42-GTPase level in platelet derived growth factor-induced human U87MG cells measured with GST-rhotekin-RBD by pulldown assay. The format is functional, cell-based. The following applies: U-87MG ATCC.
Experiment [21] relates to U-87 MG. Description: Reduction of Rac1-GTPase level in platelet derived growth factor-induced human U87MG cells measured with GST-PAK-RBD by pulldown assay. The format is functional, cell-based. The following applies: U-87MG ATCC.
Experiment [22] concerns U-87 MG. Description: Reduction of RhoA-GTPase level in platelet derived growth factor-induced human U87MG cells measured with GST-PAK-RBD by pulldown assay. The format is functional, cell-based. The following applies: U-87MG ATCC.
In experiment [23] the test system is U-87 MG. Description: Reduction of Cdc42-GTPase level in platelet derived growth factor-induced human U87MG cells measured with GST-PAK-RBD by pulldown assay. The format is functional, cell-based. The following applies: U-87MG ATCC.

Each structure is given as a SMILES string. Active and inactive are the calls of the source. The rule behind the calls is not given here.

`O=c1cc(CN2CCOCC2)occ1OCCCCCSc1ccnc2cc(C(F)(F)F)ccc12`: the outcome (with NIH3T3 [1]; in [4]; in experiment [5]; in experiment [6]; with NIH3T3 [7]; in the experiment with NIH3T3 [9]) was Active. Also, the outcome (in [12]; in the experiment with U-87 MG [13]; with NIH3T3 [16]; with NIH3T3 [17]) was Active. The outcome (in the experiment with NIH3T3 [2]; in [8]; in the experiment on 293T; in experiment [10]; in the experiment with NIH3T3 [11]; with NIH3T3 [14]) was inactive. For the same molecule, the outcome in experiment [15] was inactive. Moreover, the inhibition in the experiment with NIH3T3 [3] came to 80%. In the experiment with NIH3T3 [18], this molecule yielded an inhibition at 5 µM of 80%.
Regarding `CCN(CC)CCCC(C)Nc1nc(C)cc(Nc2ccc3nc(C)cc(N)c3c2)n1` (stereo unspecified), the outcome with NIH3T3 [7] was inactive.
On to `O=c1cc(CN2CCNCC2)occ1OCCCCCSc1ccnc2cc(C(F)(F)F)ccc12`, for which the outcome in the experiment with U-87 MG [19], in the experiment with U-87 MG [20], with U-87 MG [21], with U-87 MG [22], with U-87 MG [23] and in the experiment with U-87 MG [13] was inactive.

By inhibition is commonly meant how much of the control response was suppressed. High values mean strong suppression, low ones little suppression.

The record behind these values is ChEMBL document CHEMBL1156526, “Specificity and mechanism of action of EHT 1864, a novel small molecule inhibitor of Rac family small GTPases” (2007).
